# According to patent US6924143B2, “Method for increasing the growth rate of cells in static liquid media” (priority 2001, dated 2005):
# Tested on: U. maydis wildtype strains
# Test: Growth-assay of U. maydis strains in 384 well MTPs (FIG. 3A, absorbance at OD620)
# Format: cell-based, Ustilago maydis
# Conditions: Hygromycin B 200 μg/ml, initial OD620 0,18, 1x minimal medium with 0,1% Kelzan, 30° C.
# Procedure: FIG. 3 illustrates growth-assay of U. maydis strains in 384 well MTPs. • A: The kinetik of the absorbance at OD620 for U. maydis wildtype strains was determined in a 384 well MTP using a Tecan ultra reader (rombus). As control served a strain, to which Hygromycin B was added in a concentration of 200 μg/ml (crosses). The initial OD620 for both strains was 0,18. […] GFP fluorescence of a U. maydis strain, in which GFP expression is controlled by the strong constitutive OMA promoter (squares), was determined in a Tecan plus reader. The excitation wavelength was 485 nm, the emission wavelength was 535 nm. […] Compared to lower temperatures, the increase in OD620 and the increase in fluorescence was faster. Experimental procedures: U. maydis strains where treated as described before in the Examples. The solution contained 1×minimal medium, 0,1% Kelzan and the assay was performed at 30° C. All experiments where repeated in independent duplicates.
compound,measurement,value
CN[C@H]1C[C@@H](N)[C@H](O)[C@@H](O[C@@H]2O[C@H](CO)[C@H](O)[C@@H]3OC4(O[C@H]23)O[C@H]([C@@H](N)CO)[C@H](O)[C@H](O)[C@H]4O)[C@@H]1O (stereo partly shown) [Hygromycin B],course of optical density (OD620) over time,continuous decrease in optical density
